Assay results published in US10047383B2, “Bioproduction of chemicals” (Cargill, Incorporated, priority 2013, dated 2018).

Key:
E. coli strains = test: Growth inhibition of E. coli strains grown in the presence of 3-HP; type: cell-based
H. elongata ACCase = test: Salt effect on ACCase from the halophile; type: biochemical, Halomonas elongata; conditions: FIG. 4, compared to the E. coli ACCase
Protocol: Concentrations of products were measured using the Nanodrop spectophotometer.

SMILES	3-HP level at which growth inhibition has been demonstrated (E. coli strains) [g/L]	effect of salt on H. elongata ACCase (H. elongata ACCase)
O=C(O)CCO [3-HP, 3-hydroxypropionic acid]	≥ 20	–
N.O=C(O)CCO [NH4-3-HP]	–	less affected
Cl.N [NH4Cl, reference compound]	–	less affected
